# Experimental data taken from patent publication US6174888A, “2-amino-7-(1-substituted-2-hydroxyethyl)-3,5-dihydropyrrolo[3,2-D]pyrimidin -4-ones” (Novartis AG, priority 1998, dated 2001).
# Key:
# PNP = PNP inhibition in vivo: increased plasma level of inosine in mice; details: 10 mg/Kg p.o.
# Protocol: Briefly, mice are treated orally with the PNP inhibitor suspended in fortified cornstarch (3% cornstarch suspension in water with 0.33% Tween 80 and 5% PEG 400) at a final volume of 10 ml/kg. One or more hours after a single oral dose of compound, the mice are bled by cardiac puncture into 25 U/ml heparin to obtain plasma. The samples are analyzed for both inosine and drug levels by a gradient reverse-phase high performance liquid chromatography (HPLC) method (see Anal Chem, 1977, 49:2237-41). Quantitation is performed using an internal standard method with 2',3'-dideoxyinosine (DDI) as the internal standard.
# Human CCRF-CEM cells = assay: potentiation of the cell growth inhibitory activity (cytotoxicity) of 2'-deoxyguanosine, CCRF-CEM cell assay; assay type: cell-based; details: d-Guo 10 μM, increase in cell number between 0 and 72 hours
# Protocol: The selective suppression of spontaneous T-cell proliferation in vitro is measured by the potentiation of the cell growth inhibitory activity (cytotoxicity) of 2'-deoxyguanosine (d-Guo) by the compounds of the invention, determined as follows: Human CCRF-CEM cells are grown in RPMI-1640 medium. To suspension cultures of these cells, d-Guo at a fixed concentration (10 μM) and the candidate PNP inhibitor at varied concentrations are added and the number of cells are determined in a Coulter counter 24, 48, and 72 hours thereafter. […] This method is similar to that previously used to determine the effectiveness of PNP inhibitors on potentiation of the toxicity of d-Guo. [See D. A. Shewach et al., Cancer Res., 46, 519 (1986); J. C. Sircar et al., Agents and Actions, 21, 253 (1987), also Methods in Pharmacology, D. M. Paten, ed. 1985, pp. 147-162].
# Calf spleen PNP = biological target: T1, Calf spleen PNP (Bos taurus, UniProt P55859); assay: PNP inhibition in vitro, colorimetric enzymic determination of inorganic phosphate (PNP and xanthine oxidase, substrate inosine); assay type: biochemical; details: 1 mM phosphate concentration
# T1 construct: Calf spleen PNP is used as the enzyme source; from tissue; host or cells: calf spleen
# T1 sequence (P55859 1-289): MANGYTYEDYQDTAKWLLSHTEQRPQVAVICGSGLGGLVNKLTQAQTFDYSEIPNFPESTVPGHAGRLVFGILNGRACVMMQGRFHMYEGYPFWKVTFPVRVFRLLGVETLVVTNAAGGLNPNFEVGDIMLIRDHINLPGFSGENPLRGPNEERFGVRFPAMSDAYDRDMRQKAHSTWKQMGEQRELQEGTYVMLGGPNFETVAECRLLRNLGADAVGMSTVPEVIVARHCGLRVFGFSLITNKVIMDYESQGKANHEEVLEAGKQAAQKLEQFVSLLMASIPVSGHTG
# Protocol: PNP inhibition can also be determined in vitro as follows: An enzymic method for the determination of inorganic phosphate (see Chem. Pharm. Bull., 1981, 29:1451-5), based on the principle of forming hydrogen peroxide with purine nucleoside phosphorylase (PNP) and xanthine oxidase, is used to colorimetrically measure the degree of linkage between enzyme and substrate (inosine). Calf spleen PNP is used as the enzyme source. The IC50 values for the compounds studied are determined graphically at two phosphate concentrations (1 and 50 mM) from a plot of percent inhibition versus compound concentration.
# transplant rejection = assay: mouse tail skin transplant rejection model; assay type: in vivo, mouse (C57BL/10-SnJ and B10.BR/SgSnJ)
# Excerpt: Protection against transplant rejection can be determined in a mouse tail skin transplantation procedure.
# Mice are anesthetized with tribromoethanol i.p. injection according to the method of Papaioannou and Fox (Lab. Animal Science 1993;43:189-92). The mouse tail skin transplant rejection model is a modification of that described by Baily and Usama, (Transpl. Bull. 1960;7:424-5). Four skin grafts per mouse are exchanged between strains [C57BL/10-SnJ (H-2K^b) and B10.BR/SgSnJ (H-2K^k)] at surgery (d0). Fitted skin grafts are made with a scalpel, and tail graft sites are protected with tubing for 2 days following surgery. Mouse tails are evaluated at day 7 for missing grafts. Only those graft sites that have patent grafts at day 7 are evaluated at later scoring intervals. Grafts are scored numerically for signs of rejection at ~weekly scoring intervals starting day 14. Dose-group mean graft scores are compared statistically.
# [1] = tested on: collagen II induced arthritis; assay: collagen II induced arthritis in mice model; assay type: in vivo, mice (DBA/1LacJ); details: 20 mg/Kg/day, oral
# Protocol: The antiarthritic activity can be determined in the collagen II induced arthritis in mice model. DBA/1LacJ female mice, 6-8 weeks old, are immunized with 100 μg of chicken type II collagen emulsified in Freund's complete adjuvant (FCA) by injecting at the base of the tail on day 0. On day 17 after collagen injection, the immune response to type II collagen is boosted with a subcutaneous injection of 200 μg LPS solubilized in PBS. Paws are examined on days 17, 21, 24, 28, 31, 35, and 42 and scored for the symptoms of arthritis based on criteria such as inflammation, swelling and ankylosis. Compounds are suspended in corn starch vehicle and administered orally to mice once daily beginning on day 1 and continuing through day 42.
SMILES,increase in the plasma level of inosine (PNP),IC50 (Human CCRF-CEM cells) [nM],IC50 (Calf spleen PNP) [nM],"protection against transplant rejection (transplant rejection; 50 mg/Kg/day, mouse)","effect of combination with cyclosporin in the transplant rejection model (transplant rejection; combination of a compound of the invention, e.g. of example 1, and cyclosporin)",antiarthritic activity [1]
"Nc1nc2c([C@@H](CO)c3ccccc3)c[nH]c2c(=O)[nH]1 [3(f), 2-Amino-7-(2(S)-hydroxy-1-phenylethyl)-3,5-dihydro-4H-pyrrolo[3,2-d]-pyrimidin-4-one]",significant increase,~100,~10,,,
"Nc1nc2c([C@@H](CO)c3ccccc3F)c[nH]c2c(=O)[nH]1 [Example 1, 2-amino-7-[1-(2-flourophenyl)-2(R)-hydroxyethyl]-3,5-dihydro-4H-pyrrolo[3,2-d]pyrimidin-4-one]",significant increase,~75,~10,effective in protecting against transplant rejection,superior to either cyclosporin or the PNP inhibitor alone,effective
